Data reported in US20100227767A1, “STOCHASTIC CONFINEMENT TO DETECT, MANIPULATE, AND UTILIZE MOLECULES AND ORGANISMS” (priority 2007, published 2010).

Legend:
MSSA = assay: plug-based drug screening in human blood plasma/LB, MSSA; conditions: MSSA in 1:1 human blood plasma/LB; breakpoint concentration; 7.5 h at 37° C
[1] = system: Methicillin Resistant S. aureus (MRSA, ATCC#43300); assay: plug-based microfluidic antibiotic susceptibility screen with alamarBlue viability indicator; conditions: FIG. 2c; breakpoint concentration; negative control VCM, positive control blank
[2] = system: Methicillin Resistant S. aureus (MRSA); conditions: 24 mg/L; cited from earlier work
[3] = system: Methicillin Sensitive S. aureus (MSSA); conditions: 24 mg/L; cited from earlier work
[4] = system: Staphylococcus aureus ATCC#25923 (MSSA); assay: antibiotic testing on Mueller Hinton agar plates, MSSA; conditions: 30° C; even after 40 h
Description: Plates were made from Mueller Hinton Agar (Fluka, Switzerland). After autoclaving, the agar was cooled and antibiotics were added and 20 mL plates were poured. For CFX and OXA testing, 50 μL of MRSA and MSSA bacterial culture at 4×10^3 CFU/mL was spread onto separate TSA plates. The plates were incubated at 30° C. After 16.5 h and 40 h the plates were examined for colonies. […] For AMP, ERT, LVF, and VCM, 5 μL of culture at 2×10^4 CFU/mL were spread onto plates, and the plates were incubated at 37° C. for 12 h. After 12 h, growth of colonies on the plates was considered resistance to the antibiotic and no colonies on the plates were considered sensitivity to the antibiotic. For all tests, control plates with no antibiotic were inoculated to ensure that each plate tested received many CFU during inoculation.

[5] = system: Methicillin Resistant S. aureus (MRSA, ATCC#43300); assay: macro-scale experiments, MRSA

SMILES	increase in fluorescence intensity of plugs with antibiotic (MSSA)	plug fluorescence compared to positive and negative controls (unpaired t-test) [1]	known inhibition of the strain by CFX [2]	known inhibition of the strain by CFX [3]	appearance of MSSA colonies on antibiotic plates [4]	inhibition of the S. aureus strain in macro-scale experiments [5]
CC1(C)S[C@@H]2[C@H](NC(=O)[C@H](N)c3ccccc3)C(=O)N2[C@H]1C(=O)O [AMP, ampicillin]	no increase in fluorescence intensity	statistically different than the negative control				
CO[C@@]1(NC(=O)Cc2cccs2)C(=O)N2C(C(=O)O)=C(COC(N)=O)CS[C@@H]21 [CFX, cefoxitin]		statistically different than the negative control	inhibited	inhibited	did not appear	
CC[C@H]1OC(=O)[C@H](C)[C@@H](O[C@H]2C[C@@](C)(OC)[C@@H](O)[C@H](C)O2)[C@H](C)[C@@H](O[C@@H]2O[C@H](C)C[C@H](N(C)C)[C@H]2O)[C@](C)(O)C[C@@H](C)C(=O)[C@H](C)[C@@H](O)[C@]1(C)O [ERT, erythromycin]		statistically different than the negative control				
Cc1onc(-c2ccccc2)c1C(=O)N[C@@H]1C(=O)N2[C@@H]1SC(C)(C)[C@@H]2C(=O)O [OXA, oxacillin]		statistically different than the negative control			did not appear	
CN[C@H](CC(C)C)C(=O)N[C@H]1C(=O)N[C@@H](CC(N)=O)C(=O)N[C@H]2C(=O)N[C@H]3C(=O)N[C@H](C(=O)N[C@H](C(=O)O)c4cc(O)cc(O)c4-c4cc3ccc4O)[C@H](O)c3ccc(c(Cl)c3)Oc3cc2cc(c3O[C@@H]2O[C@H](CO)[C@@H](O)[C@H](O)[C@H]2O[C@H]2C[C@](C)(N)[C@H](O)[C@H](C)O2)Oc2ccc(cc2Cl)[C@H]1O [VCM, vancomycin]		statistically different than positive controls				inhibited
